Measured values from patent US9510598B2, “Nitrogen-containing heterocyclic compounds for plant disease control” (BAYER CROPSCIENCE AG, priority 2012, dated 2016).

assay type: physicochemical; details: HPLC on reversed phase columns, method [a]: pH 2.7, 0.1% formic acid in water / acetonitrile, linear gradient 10% to 95% acetonitrile

| Compound | log P |
| --- | --- |
| CCOCCCNC(=O)C1(C2CC2)CC(c2ccc3ncc(Br)cc3c2)=NO1 (centres unmarked) [compound 270] | 3.21[a] |
| CC(C)NC(=O)C12CCCCC1C(c1ccc3ncc(Br)cc3c1)=NO2 (centres unmarked) [compound 272] | 3.55[a] |
| CC(C)NC(=O)C1(C)ON=C(c2ccc3ncc(Br)cc3c2)C1C (centres unmarked) [compound 274] | 3.04[a] |
| COc1nc2ccc(C3=NOC(C)(C(=O)NC(C)C)C3)cc2cc1Br (centres unmarked) [compound 275] | 3.54[a] |
| CCSc1cnc2ccc(C3=NOC(C)(C(=O)NCc4cn(CC)nc4C)C3)cc2c1 (centres unmarked) [compound 276] | 2.39[a] |
| CC(C)NC(=O)C1(F)CC(c2ccc3ncc(Br)cc3c2)=NO1 (centres unmarked) [compound 280] | 2.69[a] |
| CC(=O)C1(C(=O)NC(C)C)CC(c2ccc3ncc(Br)cc3c2)=NO1 (centres unmarked) [compound 281] | 2.88[a] |
| CCC1C(c2ccc3ncc(Br)cc3c2)=NOC1(C)C(=O)NC(C)C (centres unmarked) [compound 283] | 3.76[a] |
| CCn1cc(CNC(=O)C2(C)CC(c3ccc4ncc(C#N)cc4c3)=NO2)c(C)n1 (centres unmarked) [compound 288] | 1.80[a] |
| CN(C)CCCNC(=O)C1(C)CC(c2ccc3ncc(Br)cc3c2)=NO1 (centres unmarked) [compound 297] | 1.23[a] |
| COCC#CC(C)(C)NC(=O)C1(C)CC(c2ccc3ncc(Br)cc3c2)=NO1 (centres unmarked) [compound 299] | 3.19[a] |
| CCn1cc(CNC(=O)C2(C)CC(c3ccc4nc(C#N)c(Br)cc4c3)=NO2)c(C)n1 (centres unmarked) [compound 302] | 2.57[a] |
| CC(C)NC(=O)C1(C)CC(c2ccc3nc(C#N)c(Br)cc3c2)=NO1 (centres unmarked) [compound 303] | 3.00[a] |
| C=Cc1cnc2ccc(C3=NOC(C)(C(=O)NCc4cn(CC)nc4C)C3)cc2c1 (centres unmarked) [compound 308] | 1.95[a] |
| CC1CCCC1(C#N)NC(=O)C1(C)CC(c2ccc3ncc(Br)cc3c2)=NO1 (centres unmarked) [compound 313] | 3.27[a] |
| CC1(C(=O)NC(COc2ccc(F)cc2)C2CC2)CC(c2ccc3ncc(Br)cc3c2)=NO1 (centres unmarked) [compound 315] | 3.99[a] |
| C#Cc1cnc2ccc(C3=NOC(C)(C(=O)NC(C)CC(C)C)C3)cc2c1 (centres unmarked) [compound 316] | 3.37[a] |
| CC1(C(=O)NC2CC2)CC(c2ccc3ncc(Br)cc3c2)=NO1 (centres unmarked) [compound 317] | 2.40[a] |
| C#Cc1cnc2ccc(C3=NOC(C)(C(=O)NC(COc4ccc(F)cc4)C4CC4)C3)cc2c1 (centres unmarked) [compound 318] | 3.58[a] |

| Compound | log P |
| --- | --- |
| CC(C)(C)NC(=O)C1(C)CC(c2ccc3ncc(Br)cc3c2)=NO1 (centres unmarked) [compound 319] | 3.39[a] |
| C#Cc1cnc2ccc(C3=NOC(C)(C(=O)NC(C)(C)C(C)C)C3)cc2c1 (centres unmarked) [compound 320] | 3.71[a] |
| CC(C)CC(C)NC(=O)C1(C)CC(c2ccc3ncc(Br)cc3c2)=NO1 (centres unmarked) [compound 321] | 3.80[a] |
| C#Cc1cnc2ccc(C3=NOC(C)(C(=O)NC(C#N)c4ccccc4)C3)cc2c1 (centres unmarked) [compound 324] | 2.88[a] |
| CC(C)C(C)(C)NC(=O)C1(C)CC(c2ccc3ncc(Br)cc3c2)=NO1 (centres unmarked) [compound 325] | 4.19[a] |
| CC(NC(=O)C1(C)CC(c2ccc3ncc(Br)cc3c2)=NO1)c1nn(C)c(=O)n1C (centres unmarked) [compound 327] | 1.99[a] |
| CC(C)CCC(C)NC(=O)C1(C)CC(c2ccc3ncc(Br)cc3c2)=NO1 (centres unmarked) [compound 328] | 4.21[a] |
| CC(NC(=O)C1(C)CC(c2ccc3ncc(Br)cc3c2)=NO1)c1cccc2ccccc12 (centres unmarked) [compound 340] | 4.09[a] |
| C#Cc1cnc2ccc(C3=NOC(C)(C(=O)NC(C)c4ccc(OC(F)(F)F)cc4)C3)cc2c1 (centres unmarked) [compound 342] | 3.71[a] |
| CC(NC(=O)C1(C)CC(c2ccc3ncc(Br)cc3c2)=NO1)c1ccc(OC(F)(F)F)cc1 (centres unmarked) [compound 344] | 4.16[a] |
| C#Cc1cnc2ccc(C3=NOC(C)(C(=O)NC(C)c4ccc(Cl)cc4)C3)cc2c1 (centres unmarked) [compound 346] | 3.44[a] |
| CC(NC(=O)C1(C)CC(c2ccc3ncc(Br)cc3c2)=NO1)c1ccc(Cl)cc1 (centres unmarked) [compound 348] | 3.87[a] |
| C#Cc1cnc2ccc(C3=NOC(C)(C(=O)NC(C)c4nn(C)c(=O)n4C)C3)cc2c1 (centres unmarked) [compound 352] | 1.76[a] |
| C#Cc1cnc2ccc(C3=NOC(C)(C(=O)NC(c4cccc(C)c4)C(F)(F)F)C3)cc2c1 (centres unmarked) [compound 354] | 3.92[a] |
| CC1(C(=O)NC(C#N)c2ccccc2)CC(c2ccc3ncc(Br)cc3c2)=NO1 (centres unmarked) [compound 356] | 3.25[a] |
| Cc1cccc(C(NC(=O)C2(C)CC(c3ccc4ncc(Br)cc4c3)=NO2)C(F)(F)F)c1 (centres unmarked) [compound 358] | 4.36[a] |
| C#Cc1cnc2ccc(C3=NOC(C)(C(=O)NC(CN(C)c4ccccc4)C4CC4)C3)cc2c1 (centres unmarked) [compound 359] | 3.69[a] |
| CC1(C(=O)NC(c2cccc(Cl)c2)C(F)(F)F)CC(c2ccc3ncc(Br)cc3c2)=NO1 (centres unmarked) [compound 360] | 4.39[a] |

same assay, conditions: method [a]: HPLC/LC-MS on reversed phase at pH 2.7, 0.1% formic acid in water / acetonitrile, gradient 10% to 95% acetonitrile

| Compound | log P |
| --- | --- |
| CN(CC(NC(=O)C1(C)CC(c2ccc3ncc(Br)cc3c2)=NO1)C1CC1)c1ccccc1 (centres unmarked) [compound 362] | 4.19[a] |
| CC1(C(=O)NC(CN2CCCC2)C2CC2)CC(c2ccc3ncc(Br)cc3c2)=NO1 (centres unmarked) [compound 364] | 1.53[a] |
| CC(C)NC(=O)C1(C[Si](C)(C)C)CC(c2ccc3ncc(Br)cc3c2)=NO1 (centres unmarked) [compound 395] | 4.66[a] |
| C#Cc1cc2cc(C3=NOC(C)(C(=O)NC(C)C)C3)ccc2nc1C#N (centres unmarked) [compound 404] | 2.77[a] |
| CCn1cc(CNC(=O)C2(C)CC(c3ccc4ncc(C(F)=CC(F)(F)F)cc4c3)=NO2)c(C)n1 (centres unmarked) [compound 405] | 2.84[a] |
| CCn1cc(CNC(=O)C2(C[Si](C)(C)C)CC(c3ccc4ncc(Br)cc4c3)=NO2)c(C)n1 (centres unmarked) [compound 413] | 2.83[a] |
| CCn1cc(CNC(=O)C2(C)CC(c3ccc4ncc(NC(=O)OC(C)(C)C)cc4c3)=NO2)c(C)n1 (centres unmarked) [compound 421] | 2.44[a] |
| C#Cc1cnc2ccc(C3=NOC(C)(C(=O)NC(COC)COC)C3)cc2c1 (centres unmarked) [compound 459] | 2.30[a] |
| C#Cc1cnc2ccc(C3=NOC(C)(C(=O)NC4=NCCO4)C3)cc2c1 (centres unmarked) [compound 460] | 1.52[a] |
| CCn1cc(CNC(=S)C2(OC)CC(c3ccc4ncc(Br)cc4c3)=NO2)c(C)n1 (centres unmarked) [compound 478] | 3.15[a] |
| CC1(C(=O)NCc2ccsc2)CC(c2ccc3ncc(Br)cc3c2)=NO1 (centres unmarked) [compound 479] | 3.07[a] |
| CCn1cc(CNC(=O)C2(C)CC(c3ccc4nc(C(N)=O)c(I)cc4c3)=NO2)c(C)n1 (centres unmarked) [compound 484] | 1.60[a] |
| COc1nc2ccc(C3=NOC(C)(C(=O)NC(C)C)C3)cc2cc1I (centres unmarked) [compound 485] | 3.72[a] |
| CC(C)NC(=O)C1(C)CC(c2ccc3nc(Cl)c(I)cc3c2)=NO1 (centres unmarked) [compound 486] | 3.50[a] |
| Cc1ncsc1CNC(=O)C1(C)CC(c2ccc3ncc(Br)cc3c2)=NO1 (centres unmarked) [compound 487] | 2.28[a] |
| CC1(C(=O)NCc2nccs2)CC(c2ccc3ncc(Br)cc3c2)=NO1 (centres unmarked) [compound 488] | 2.32[a] |
| CCn1nc(C)c(NC(=O)C2(C)CC(c3ccc4ncc(Br)cc4c3)=NO2)c1C (centres unmarked) [compound 492] | 2.41[a] |
| CC1(C(=O)NC(C)(C)c2ccon2)CC(c2ccc3ncc(Br)cc3c2)=NO1 (centres unmarked) [compound 494] | 2.86[a] |
| CC1(C(=O)NC2=NCCO2)CC(c2ccc3ncc(Br)cc3c2)=NO1 (centres unmarked) [compound 495] | 1.71[a] |
